Assay results as given in patent US12617747B2, “Cannabinoid analogs and methods for their preparation” (InMed Pharmaceuticals Inc., priority 2018, dated 2026).

Biological target: T1, human CB2 receptor (Homo sapiens, UniProt P34972)
T1 construct: HA; expressed in transfected cells
Test: CB2 receptor agonist activity in AtT20 cells stably expressing HA-tagged human CB2 receptors
Assay type: cell-based
Conditions: method of Udoh et al. 2019
Source text: The activity of 5-fluorocannabichromene (5F-CBC) was studied in AtT20 cells stably expressing HA-tagged human CB1 and CB2 receptors, as described by Udoh, et al. (“Cannabichromene is a cannabinoid CB2 receptor agonist.” British Journal of Pharmacology, 2019, doi: 10.1111/bph.14815).

T1 sequence (P34972 whole entry): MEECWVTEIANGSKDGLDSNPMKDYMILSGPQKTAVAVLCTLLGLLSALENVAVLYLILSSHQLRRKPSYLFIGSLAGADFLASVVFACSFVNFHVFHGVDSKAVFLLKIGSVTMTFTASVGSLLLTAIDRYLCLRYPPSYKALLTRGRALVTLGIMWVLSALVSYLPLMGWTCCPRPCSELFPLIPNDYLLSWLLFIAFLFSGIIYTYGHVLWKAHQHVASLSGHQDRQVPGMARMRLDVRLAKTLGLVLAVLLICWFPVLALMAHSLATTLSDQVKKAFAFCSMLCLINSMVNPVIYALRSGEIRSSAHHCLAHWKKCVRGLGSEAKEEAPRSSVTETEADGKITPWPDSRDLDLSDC

CC(C)=CCCC1(C)C=Cc2c(O)cc(CCCCCF)cc2O1 (stereo not shown) [5F-CBC, 7-(5-fluoropentyl)-2-methyl-2-(4-methyl-pent-3-enyl)-2H-chromen-5-ol]
EC50: 2100 nM
